Experimental data published in PMC7694092, “Antibacterial Cyclic Tripeptides from Antarctica-Sponge-Derived Fungus Aspergillus insulicola HDN151418” (Marine Drugs, 2020).
In brackets after ≈: the same amount, converted by molar mass. Like-named read-outs stand apart in the source and are kept apart here.

Columns and labels:
Bacillus subtilis = test: microbe, parasite or virus in culture
Description: (§1) The antimicrobial activities of 1–6 against Bacillus cereus, Proteus species, Mycobacterium phlei, Bacillus subtilis, Vibrio parahemolyticus, Edwardsiella tarda, MRCNS, and MRSA were evaluated as previously reported by using the agar dilution method. […] All strains were donated by the Qingdao municipal hospital.

Bacillus cereus = test: microbe, parasite or virus in culture
Description: as §1

Mycobacterium phlei = test: microbe, parasite or virus in culture
Description: as §1

Edwardsiella tarda = test: microbe, parasite or virus in culture
Description: as §1

Proteus species = test: organism not typed
Description: as §1

in vitro [1] = assay type: cell-based; settings: human; BEL-7402 cells; read-out: cytotoxic activity IC50
Description: (§2) HeLa (human epithelial carcinoma cell line), HCT-116 (human colon cancer cell line), MCF-7 (human breast adenocarcinoma cell line), A549 (human lung adenocarcinoma cell line), SH-SY5Y (human neuroblastoma cell line), MDA-MB-231 (human breast cancer cell line), HO8910 (human ovarian carcinoma cell line), and MGC-803 (human stomach carcinoma cell line) were ordered from Shanghai Institute of Biochemistry and Cell Biology, Chinese Academy of Sciences (Shanghai, China). K562 (human leukaemia cell line), BEL-7402 (human hepatic carcinoma cell line), L-02 (human normal hepatic cell line), GES-1 (human gastric epithelial cell line), U87 (human primary glioblastoma cell line), ASPC-1 (human pancreatic cancer cell line), PC-3 (human prostate carcinoma cell line), and NCI-H446 (human small cell lung cancer cell line) were ordered from the American Type Culture Collection (ATCC, Gaithersburg, MD, USA).

in vitro [2] = assay type: cell-based; settings: human; HCT-116 cells; read-out: cytotoxic activity IC50
Description: as §2

in vitro [3] = assay type: cell-based; settings: human; SH-SY5Y cells; read-out: cytotoxic activity IC50
in vitro [4] = assay type: cell-based; settings: human; HO8910 cells; read-out: cytotoxic activity IC50
Description: as §2

in vitro [5] = assay type: cell-based; settings: human; MCF-7 cells; read-out: cytotoxic activity IC50
Description: as §2

in vitro [6] = assay type: cell-based; settings: human; A549 cells; read-out: cytotoxic activity IC50
Description: as §2

in vitro [7] = assay type: cell-based; settings: human; NCI-H446 cells; read-out: cytotoxic activity IC50
Description: as §2

in vitro [8] = assay type: cell-based; settings: human; Hela cells; read-out: cytotoxic activity IC50
Description: as §2

in vitro [9] = assay type: cell-based; settings: human; MDA-MB-231 cells; read-out: cytotoxic activity IC50
Description: as §2

in vitro [10] = assay type: cell-based; settings: human; K562 cells; read-out: cytotoxic activity IC50
Description: as §2

in vitro [11] = settings: human, GES-1 cells (gastric epithelial cell line)
MRCNS = test system: MRCNS
Description: as §1

MRSA = test system: MRSA
Description: as §1

in vitro [12] = assay type: cell-based; settings: human; L-02 cells; read-out: cytotoxic activity IC50
Description: as §2

in vitro [13] = assay type: cell-based; settings: human; PC-3 cells; read-out: cytotoxic activity IC50
Vibrio parahemolyticus = test: Antimicrobial activity (MIC), agar dilution method; assay type: cell-based; settings: performed in triplicates
Description: as §1

in vitro [14] = assay type: cell-based; settings: human; MGC-803 cells; read-out: cytotoxic activity IC50
Description: as §2

in vitro [15] = assay type: cell-based; settings: human; U87 cells; read-out: cytotoxic activity IC50
in vitro [16] = assay type: cell-based; settings: human; ASPC-1 cells; read-out: cytotoxic activity IC50
[17] = dissolved in solvent mixture MeOH-H2O and exposed to air for two weeks; LC-MS
Description: It is well-known that some artificial compounds are formed from natural compounds due to oxidation when exposed to air.

Structure (SMILES) | IC50 (in vitro [1]) | IC50 (in vitro [2]) | IC50 (in vitro [3]) | IC50 (in vitro [4]) | IC50 (in vitro [5]) | MIC, B. subtilis (Bacillus subtilis) | MIC, B. cereus (Bacillus cereus) | MIC, M. phlei (Mycobacterium phlei) | MIC, E. tarda (Edwardsiella tarda) | IC50 (in vitro [6]) | IC50 (in vitro [7]) | IC50 (in vitro [8]) | IC50 (in vitro [9]) | IC50 (in vitro [10]) | IC50 (in vitro [11]) | MIC, MRCNS (MRCNS) | MIC, MRSA (MRSA) | IC50 (in vitro [12]) | MIC, P. species (Proteus species) | IC50 (in vitro [13]) | further results
O=C(O)c1cn(C2CC2)c2cc(N3CCNCC3)c(F)cc2c1=O [CIP, Ciprofloxacin, reference compound] | – | – | – | – | – | – | – | – | – | – | – | – | – | – | – | – | – | – | – | – | MIC (Bacillus subtilis; Bacillus subtilis, read-out: MIC, B. subtilis): 0.195 µM (≈ 0.0646 µg/mL); MIC (Bacillus cereus; Bacillus cereus, read-out: MIC, B. cereus): 0.78 µM (≈ 0.258 µg/mL); MIC (Mycobacterium phlei; Mycolicibacterium phlei, read-out: MIC, M. phlei): 0.78 µM (≈ 0.258 µg/mL); MIC (Edwardsiella tarda; Edwardsiella tarda, read-out: MIC, E. tarda): 0.0125 µM (≈ 0.00414 µg/mL); MIC (Proteus species; read-out: MIC, P. species): 0.195 µM (≈ 0.0646 µg/mL)
CC(C)[C@H]1C(=O)N(C)[C@@H](C)C(=O)NCCC[C@H](NC(=O)/C=C/C=C/C(=O)O)C(=O)N1C [Compound 1] | > 30 µM | > 30 µM | > 30 µM | > 30 µM | > 30 µM | 6.25 µM (≈ 2.73 µg/mL) | 3.13 µM (≈ 1.37 µg/mL) | 3.13 µM (≈ 1.37 µg/mL) | 1.56 µM (≈ 0.681 µg/mL) | > 30 µM | > 30 µM | > 30 µM | > 30 µM | > 30 µM | > 30 µM | 12.5 µM (≈ 5.46 µg/mL) | 25.0 µM (≈ 10.9 µg/mL) | > 30 µM | 3.13 µM (≈ 1.37 µg/mL) | > 30 µM | MIC, V. parahemolyticus (Vibrio parahemolyticus): 3.13 µM (≈ 1.37 µg/mL); IC50 (in vitro [14]): > 30 µM; IC50 (in vitro [15]): > 30 µM; IC50 (in vitro [16]): > 30 µM
COC(=O)/C=C/C=C/C(=O)N[C@H]1CCCNC(=O)[C@H](C)N(C)C(=O)[C@H](C(C)C)N(C)C1=O [Compound 2, (2′E,4′E)-cyclo-[(NMe-L-Ala)-(NMe-L-Val)-(Nα-6-methoxy-6-oxohexa-2,4-dienoyl-L-Orn)]] | > 30 µM | > 30 µM | > 30 µM | > 30 µM | > 30 µM | 12.5 µM (≈ 5.63 µg/mL) | 6.25 µM (≈ 2.82 µg/mL) | 12.5 µM (≈ 5.63 µg/mL) | 1.56 µM (≈ 0.703 µg/mL) | > 30 µM | > 30 µM | > 30 µM | > 30 µM | > 30 µM | > 30 µM | 25.0 µM (≈ 11.3 µg/mL) | 25.0 µM (≈ 11.3 µg/mL) | > 30 µM | 6.25 µM (≈ 2.82 µg/mL) | > 30 µM | MIC, V. parahemolyticus (Vibrio parahemolyticus): 6.25 µM (≈ 2.82 µg/mL); IC50 (in vitro [14]): > 30 µM; IC50 (in vitro [15]): > 30 µM; IC50 (in vitro [16]): > 30 µM
CO[C@H](C)[C@@H](/C=C/C=C/C(=O)N(C)[C@H]1CCCN(C)C(=O)[C@H](C)N(C)C(=O)[C@H](C(C)C)N(C)C1=O)OC [Compound 3] | > 30 µM | > 30 µM | > 30 µM | > 30 µM | > 30 µM | >50.0 µM | >50.0 µM | >50.0 µM | 25.0 µM (≈ 13.1 µg/mL) | > 30 µM | > 30 µM | > 30 µM | > 30 µM | > 30 µM | > 30 µM | >50.0 µM | >50.0 µM | > 30 µM | >50.0 µM | > 30 µM | MIC, V. parahemolyticus (Vibrio parahemolyticus): 25.0 µM (≈ 13.1 µg/mL); IC50 (in vitro [14]): > 30 µM; IC50 (in vitro [15]): > 30 µM; IC50 (in vitro [16]): > 30 µM
CO[C@H](/C=C/C=C/C(=O)N[C@H]1CCCNC(=O)[C@H](C)N(C)C(=O)[C@H](C(C)C)N(C)C1=O)[C@@H](C)O [Compound 4, (2′E,4′E)-cyclo-[(NMe-L-Ala)-(NMe-L-Val)-(Nα-(6R,7R)-7-hydroxy-6-methoxyocta-2,4-dienoyl-L-Orn)]] | > 30 µM | > 30 µM | > 30 µM | > 30 µM | > 30 µM | >50.0 µM | 25.0 µM (≈ 12 µg/mL) | >50.0 µM | 25.0 µM (≈ 12 µg/mL) | > 30 µM | > 30 µM | > 30 µM | > 30 µM | > 30 µM | > 30 µM | >50.0 µM | >50.0 µM | > 30 µM | 25.0 µM (≈ 12 µg/mL) | > 30 µM | MIC, V. parahemolyticus (Vibrio parahemolyticus): 25.0 µM (≈ 12 µg/mL); IC50 (in vitro [14]): > 30 µM; IC50 (in vitro [15]): > 30 µM; IC50 (in vitro [16]): > 30 µM
CC(C)[C@H]1C(=O)N(C)[C@@H](C)C(=O)NCCC[C@H](NC(=O)/C=C/C=C/C=O)C(=O)N1C [Compound 5, sclerotiotide F] | > 30 µM | > 30 µM | > 30 µM | > 30 µM | > 30 µM | >50.0 µM | 25.0 µM (≈ 10.5 µg/mL) | >50.0 µM | 25.0 µM (≈ 10.5 µg/mL) | > 30 µM | > 30 µM | > 30 µM | > 30 µM | > 30 µM | > 30 µM | >50.0 µM | >50.0 µM | > 30 µM | 25.0 µM (≈ 10.5 µg/mL) | > 30 µM | MIC, V. parahemolyticus (Vibrio parahemolyticus): 25.0 µM (≈ 10.5 µg/mL); IC50 (in vitro [14]): > 30 µM; IC50 (in vitro [15]): > 30 µM; IC50 (in vitro [16]): > 30 µM
C/C=C/C=C/C=C/C(=O)N[C@H]1CCCNC(=O)[C@H](C)N(C)C(=O)[C@H](C(C)C)N(C)C1=O [Compound 6, sclerotiotide B] | > 30 µM | > 30 µM | > 30 µM | > 30 µM | > 30 µM | >50.0 µM | >50.0 µM | >50.0 µM | >50.0 µM | > 30 µM | > 30 µM | > 30 µM | > 30 µM | > 30 µM | > 30 µM | >50.0 µM | >50.0 µM | > 30 µM | >50.0 µM | > 30 µM | chemical stability (products formed) [17]: compounds 4 and 5 were also detected from the product; MIC, V. parahemolyticus (Vibrio parahemolyticus): >50.0 µM; IC50 (in vitro [14]): > 30 µM; IC50 (in vitro [15]): > 30 µM; IC50 (in vitro [16]): > 30 µM
